In ChEMBL document CHEMBL4673265, “The food-grade antimicrobial xanthorrhizol targets the enoyl-ACP reductase (FabI) in Escherichia coli” (Bioorg Med Chem Lett, 2020):
Numbering of substitutions follows the chain as printed. In brackets after ≈: the same amount, converted by molar mass. Activity calls are given as the source filed them. No cut-off for these calls is given here.

Tests used:
[1] = tested on: Mycobacterium tuberculosis; assay: Antibacterial activity against Mycobacterium tuberculosis H37Rv ATCC 27294 incubated for 7 days by microplate alamar blue assay; assay type: functional; conditions: 168 h, time 7 day
Escherichia coli [2] = assay: Antimicrobial activity against Escherichia coli ATCC 35218; assay type: functional
[3] = biological target: T1, Enoyl-[acyl-carrier-protein] reductase [NADH] FabI (Escherichia coli K-12, UniProt P0AEK4); assay: Inhibition of Escherichia coli FabI using trans-2-[…]-N-acetylcysteamine as substrate by spectrophotometry
T1 sequence (P0AEK4 whole entry): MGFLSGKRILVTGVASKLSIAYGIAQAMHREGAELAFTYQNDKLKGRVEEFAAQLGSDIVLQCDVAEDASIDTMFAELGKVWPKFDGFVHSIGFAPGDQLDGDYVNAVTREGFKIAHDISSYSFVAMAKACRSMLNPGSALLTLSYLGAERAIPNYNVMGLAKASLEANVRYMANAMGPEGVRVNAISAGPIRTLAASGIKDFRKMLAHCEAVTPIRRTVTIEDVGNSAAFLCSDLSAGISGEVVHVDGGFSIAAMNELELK

Escherichia coli [4] = assay: Antimicrobial activity against Escherichia coli W3110 imp4213 expressing pCA24N-fab/ Y156V mutant assessed as absence of growth; assay type: functional
Escherichia coli [5] = assay: Antimicrobial activity against Escherichia coli W3110 imp4213 expressing fabI G93V mutant assessed as absence of growth; assay type: functional
Escherichia coli [6] = assay: Antimicrobial activity against Escherichia coli W3110 imp4213 expressing pCA24N-fabI mutant assessed as absence of growth; assay type: functional
Escherichia coli [7] = assay: Antibacterial activity against Escherichia coli BW25113 assessed as effect on growth rate per hour at 0.128 uM incubated for 24 hrs by microplate reader; assay type: functional
Escherichia coli [8] = assay: Antimicrobial activity against Escherichia coli W3110 imp4213 expressing pCA24N-fab F203L mutant assessed as absence of growth; assay type: functional
Escherichia coli [9] = assay: Antimicrobial activity against Escherichia coli W3110 imp4213 expressing fabI392 mutant assessed as absence of growth; assay type: functional
Escherichia coli [10] = assay: Antimicrobial activity against Escherichia coli W3110 imp4213 assessed as absence of growth; assay type: functional
Escherichia coli [11] = assay: Antimicrobial activity against Escherichia coli W3110 imp4213 expressing pCA24N-fab F204V mutant assessed as absence of growth; assay type: functional
Escherichia coli [12] = assay: Antimicrobial activity against Escherichia coli W3110 imp4213 expressing pCA24N mutant assessed as absence of growth; assay type: functional
[13] = Inhibition of Staphylococcus aureus FabI assessed as incorporation of [1-14C]acetate to L-[U-14C]leucine
Staphylococcus aureus = assay: Antimicrobial activity against Staphylococcus aureus assessed as complete inhibition of growth after 24 hrs by broth microdilution method; assay type: functional
Escherichia coli [14] = assay: Antibacterial activity against Escherichia coli BW25113 assessed as effect on growth rate per hour at 8 uM incubated for 24 hrs by microplate reader; assay type: functional
Escherichia coli [15] = assay: Antimicrobial activity against Escherichia coli W3110 imp4213 expressing fabI392 pCA24N fabI F203L mutant assessed as absence of growth; assay type: functional
Plasmodium falciparum = assay: Binding affinity to Plasmodium falciparum FabI Y156V mutant assessed as fluorescence quenching by fluorescence spectral analysis
[16] = Drug uptake in Escherichia coli W3110 at 8 ug/ml incubated for 2 hrs (Rvb (wash control) = 1.88 pM); assay type: ADME; conditions: dose 8 µg/ml
[17] = biological target: Enoyl-[acyl-carrier-protein] reductase [NADH] FabI (Escherichia coli K-12, UniProt P0AEK4, G93V); assay: Inhibition of Escherichia coli FabI G93V mutant
[18] = biological target: Enoyl-[acyl-carrier-protein] reductase [NADH] FabI (Escherichia coli K-12, UniProt P0AEK4, Y156V); assay: Inhibition of Escherichia coli FabI Y156V mutant
[19] = biological target: T2, Enoyl-acyl-carrier protein reductase (Plasmodium falciparum) (UniProt Q965D5); assay: Binding affinity to Plasmodium falciparum FabI assessed as fluorescence quenching by fluorescence spectral analysis
T2 sequence (whole entry): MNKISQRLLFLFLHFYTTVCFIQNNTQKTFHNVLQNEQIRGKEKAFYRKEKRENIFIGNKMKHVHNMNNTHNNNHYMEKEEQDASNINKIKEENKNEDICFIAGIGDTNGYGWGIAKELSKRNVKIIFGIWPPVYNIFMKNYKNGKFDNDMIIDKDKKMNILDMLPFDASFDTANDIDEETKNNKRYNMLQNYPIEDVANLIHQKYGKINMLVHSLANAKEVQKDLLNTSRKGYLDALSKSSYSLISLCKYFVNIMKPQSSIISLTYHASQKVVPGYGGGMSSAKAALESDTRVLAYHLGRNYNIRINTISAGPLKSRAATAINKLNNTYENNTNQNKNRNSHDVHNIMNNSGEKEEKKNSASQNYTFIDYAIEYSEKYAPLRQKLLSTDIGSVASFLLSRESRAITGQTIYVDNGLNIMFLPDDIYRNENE

[20] = tested on: T3, Enoyl-[acyl-carrier-protein] reductase [NADH] FabI (Escherichia coli K-12), P0AEK4 [G93V]; assay: Binding affinity to Escherichia coli FabI G93V mutant assessed as change in entropy
T3 sequence (whole entry): T1 sequence (P0AEK4 whole entry) with G93V

[21] = biological target: Enoyl-[acyl-carrier-protein] reductase [NADH] FabI (Escherichia coli K-12, UniProt P0AEK4, F203L); assay: Inhibition of Escherichia coli FabI F203L mutant
[22] = biological target: T4, Enoyl-[acyl-carrier-protein] reductase [NADH] FabI (Escherichia coli K-12) (UniProt P0AEK4); assay: Binding affinity to wild type Escherichia coli FabI assessed as change in entropy
T4 sequence (whole entry): T1 sequence (P0AEK4 whole entry)

[23] = biological target: T1, Enoyl-[acyl-carrier-protein] reductase [NADH] FabI; assay: Inhibition of Wild type Escherichia coli FabI
Escherichia coli [24] = assay: Ratio of MIC for antimicrobial activity against Escherichia coli W3110 imp4213 expressing fabI392 pCA24N fabI F203L mutant assessed as absence of growth to MIC for antimicrobial activity against Escherichia coli W3110 imp4213 expressing fabI392 mutant assessed as absence of growth; assay type: functional
Escherichia coli [25] = assay: Antimicrobial activity against Escherichia coli W3110 imp4213 expressing fabI392 pCA24N fabI Y156V mutant assessed as absence of growth; assay type: functional
[26] = biological target: Enoyl-[acyl-carrier-protein] reductase [NADH] FabI (Escherichia coli K-12, UniProt P0AEK4, F203V); assay: Inhibition of Escherichia coli FabI F203V mutant
[27] = tested on: T5, Enoyl-[acyl-carrier-protein] reductase [NADH] FabI (Escherichia coli K-12), P0AEK4 [Y156V]; assay: Binding affinity to Escherichia coli FabI Y156V mutant assessed as change in entropy
T5 sequence (whole entry): T1 sequence (P0AEK4 whole entry) with Y156V

[28] = tested on: T5, Enoyl-[acyl-carrier-protein] reductase [NADH] FabI (Escherichia coli K-12), P0AEK4 [Y156V]; assay: Binding affinity to Escherichia coli FabI Y156V mutant assessed as binding free energy
Escherichia coli [29] = assay: Antimicrobial activity against Escherichia coli W3110 imp4213 expressing fabI392 pCA24N fabI F204V mutant assessed as absence of growth; assay type: functional
Escherichia coli [30] = assay: Antimicrobial activity against wild type Escherichia coli W3110 assessed as absence of growth; assay type: functional
Escherichia coli [31] = assay: Antimicrobial activity against Escherichia coli W3110 imp4213 expressing fabI392 pCA24N mutant assessed as absence of growth; assay type: functional
Escherichia coli [32] = assay: Ratio of MIC for antimicrobial activity against Escherichia coli W3110 imp4213 expressing fabI392 pCA24N fabI F204V mutant assessed as absence of growth to MIC for antimicrobial activity against Escherichia coli W3110 imp4213 expressing fabI392 mutant assessed as absence of growth; assay type: functional
[33] = tested on: T3, Enoyl-[acyl-carrier-protein] reductase [NADH] FabI (Escherichia coli K-12), P0AEK4 [G93V]; assay: Binding affinity to Escherichia coli FabI G93V mutant assessed as binding free energy
[34] = biological target: T4, Enoyl-[acyl-carrier-protein] reductase [NADH] FabI (Escherichia coli K-12); assay: Binding affinity to wild type Escherichia coli FabI assessed as binding free energy
Escherichia coli [35] = assay: Antimicrobial activity against Escherichia coli W3110 imp4213 expressing fabI392 pCA24N fabI mutant assessed as absence of growth; assay type: functional
Escherichia coli [36] = assay: Antimicrobial activity against triclosan resistance-induced Escherichia coli W3110 assessed as absence of growth; assay type: functional
[37] = Drug uptake in Escherichia coli W3110 imp4213 mutant at 8 ug/ml incubated for 2 hrs (Rvb (wash control) = 1.48 +/- 1.31 pM); assay type: ADME; conditions: dose 8 µg/ml

Chain of Enoyl-[acyl-carrier-protein] reductase [NADH] FabI (Escherichia coli K-12, UniProt P0AEK4, F203V) (P0AEK4 2-262 F203V limits assumed): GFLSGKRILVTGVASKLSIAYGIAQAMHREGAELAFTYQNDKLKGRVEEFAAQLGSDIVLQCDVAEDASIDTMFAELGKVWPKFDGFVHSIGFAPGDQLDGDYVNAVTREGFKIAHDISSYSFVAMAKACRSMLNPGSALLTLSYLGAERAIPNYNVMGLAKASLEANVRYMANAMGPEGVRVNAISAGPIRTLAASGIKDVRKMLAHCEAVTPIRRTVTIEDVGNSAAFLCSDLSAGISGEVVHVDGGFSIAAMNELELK
Chain of Enoyl-[acyl-carrier-protein] reductase [NADH] FabI (Escherichia coli K-12, UniProt P0AEK4, Y156V) (P0AEK4 2-262 Y156V limits assumed): as the sequence (P0AEK4 2-262 F203V limits assumed) above, with Y155V, V202F counted along it
Chain of Enoyl-[acyl-carrier-protein] reductase [NADH] FabI (Escherichia coli K-12, UniProt P0AEK4, F203L) (P0AEK4 2-262 F203L limits assumed): as the sequence (P0AEK4 2-262 F203V limits assumed) above, with V202L counted along it

C=C1C(=O)OCC1C/C=C(\C)CC(=O)C=C(C)C (configuration not stated) [ANTHECOTULIDE]
MIC [1]: 20.2 µg/mL (≈ 81.3 µM)
MIC (Escherichia coli [2]): 25 µg/mL (≈ 101 µM)

O=C(O[C@@H]1Cc2c(O)cc(O)cc2O[C@@H]1c1cc(O)c(O)c(O)c1)c1cc(O)c(O)c(O)c1 [EPIGALOCATECHIN GALLATE]
IC50 [3]: 5 µM

Oc1cc(Cl)ccc1Oc1ccc(Cl)cc1Cl [TRICLOSAN]
MIC (Escherichia coli [4]): 2.05 µg/mL (≈ 7.07 µM)
MIC (Escherichia coli [5]): > 1.28 µg/mL
MIC (Escherichia coli [6]): 0.512 µg/mL (≈ 1.77 µM)
Activity (Escherichia coli [7]): 0.4
MIC (Escherichia coli [8]): > 2.05 µg/mL
MIC (Escherichia coli [9]): 0.002 µg/mL (≈ 0.00691 µM)
MIC (Escherichia coli [10]): 0.02 µg/mL (≈ 0.0691 µM)
MIC (Escherichia coli [11]): 2.05 µg/mL (≈ 7.07 µM)
MIC (Escherichia coli [12]): 0.02 µg/mL (≈ 0.0691 µM)

CC(=O)c1cc2c(=O)c3c(C(=O)O)c(O)c(O)cc3oc2c(C(C)=O)c1-c1coc2cc(O)c(O)c(C(=O)O)c2c1=O [VINAXANTHONE]
IC50 [13]: 0.9 µM
MIC (Staphylococcus aureus): 32 µg/mL (≈ 55.5 µM)

CC(C)=CCC[C@@H](C)c1ccc(C)c(O)c1 [XANTHORRIZOL]
Activity (Escherichia coli [14]): 0.354
MIC (Escherichia coli [4]): 128 µg/mL (≈ 586 µM)
MIC (Escherichia coli [15]): 16 µg/mL (≈ 73.3 µM)
Activity (Plasmodium falciparum): inactive
Drug uptake [16]: 0.23 pM
MIC (Escherichia coli [5]): 16 µg/mL (≈ 73.3 µM)
MIC (Escherichia coli [6]): 64 µg/mL (≈ 293 µM)
MIC (Escherichia coli [8]): 256 µg/mL (≈ 1170 µM)
IC50 [17]: 19.7 µM
IC50 [18]: 37.7 µM
MIC (Escherichia coli [9]): 2 µg/mL (≈ 9.16 µM)
Activity [19]: inactive
-TdeltaS [20]: -38.7 kcal/mol
IC50 [21]: 75.7 µM
MIC (Escherichia coli [10]): 16 µg/mL (≈ 73.3 µM)
MIC (Escherichia coli [11]): 256 µg/mL (≈ 1170 µM)
-TdeltaS [22]: -32.2 kcal/mol
IC50 [23]: 17.1 µM
Ratio (Escherichia coli [24]): 2
MIC (Escherichia coli [25]): 16 µg/mL (≈ 73.3 µM)
IC50 [26]: 57.3 µM
-TdeltaS [27]: -33.2 kcal/mol
deltaG [28]: -10.6 kcal/mol
MIC (Escherichia coli [29]): 16 µg/mL (≈ 73.3 µM)
MIC (Escherichia coli [30]): 0.05 µg/mL (≈ 0.229 µM)
MIC (Escherichia coli [31]): 2 µg/mL (≈ 9.16 µM)
Ratio (Escherichia coli [32]): 2
deltaG [33]: -15.1 kcal/mol
deltaG [34]: -15 kcal/mol
MIC (Escherichia coli [35]): 8 µg/mL (≈ 36.6 µM)
MIC (Escherichia coli [36]): 0.125 µg/mL (≈ 0.573 µM)
Drug uptake [37]: 76.65 pM
MIC (Escherichia coli [12]): 16 µg/mL (≈ 73.3 µM)
